Key:
[1] = system: hepatic lipid accumulation; details: 25 mg icariin/kg diet; corresponding to 4 mg/kg body weight/day; previous published studies; cited from earlier work
[2] = system: liver triglycerides; details: Example 3; HFD mice, six weeks; therapeutic metformin alone 1.5 g/kg diet
Description: (§1) Chronic high fat diet was used in C57Bl/6 mice as an experimental model of hepatic steatosis. Male C57/BL6 mice were either maintained on standard low-fat diet (control; LFD; 10% energy from fat) or placed on a high fat (HFD; 60% energy from fat, Research Diets #D12492, Research Diets, Inc, New Brunswick, N.J.) at six weeks of age to induce obesity and fatty infiltration of the liver. […] Animals were then randomized to treatments for an additional six weeks, with 10 animals per group, as specified in the following examples.
(§2) In this study, the effects of metformin alone (therapeutic dose) vs. combination therapy with sub-therapeutic amounts of metformin and leucine on liver weight and hepatic lipid accumulation were assessed. Following induction of hepatic steatosis as described in Example 1, animals were treated for six weeks according to the following treatment groups as depicted in Table 22:

[3] = system: hepatic steatosis; assay: Histological analysis of hepatic lipid accumulation in chronic high fat diet mice; format: in vivo, C57Bl/6 mice; details: HFD mice, six weeks
Description: as §1
(§3) In this study, the effects of metformin alone (therapeutic dose), subtherapeutic metformin alone, subtherapeutic leucine, and various combinations of leucine, metformin, and resveratrol on liver weight and hepatic lipid accumulation were assessed. The 1.5 g/kg diet of metformin corresponds to a therapeutically effective dose of metformin in humans. […] Likewise, the 24 g/kg dose of leucine represents a sub-therapeutic dose that was predicted to exert no significant independent effects on liver mass or hepatic steatosis. Following induction of hepatic steatosis as described in Example 1, animals were treated according to the following treatment groups as depicted in Table 21:
as §2

[4] = system: hepatic steatosis; assay: Prophylactic treatment concurrent with high fat diet: liver mass and hepatic lipid accumulation; format: in vivo, C57Bl/6 mice; details: treatment and HFD started same day, six weeks, metformin alone 1.5 g/kg diet, with or without resveratrol 12.5 mg/kg diet
Description: In this study, the prophylactic effects of metformin alone, and various combinations of metformin, leucine, and resveratrol on liver mass and hepatic steatosis are assessed. C57Bl/6 mice are assigned to the following experimental groups as depicted in Table 25: Drug treatments and high fat diet feeding (as described in Example 1) are initiated on the same day and are carried out for six weeks. The effects of the treatments and diet on liver mass and hepatic lipid accumulation are assessed as described in the preceding examples. […] In this study, the prophylactic effects of metformin alone, and various combinations of metformin, HMB, and resveratrol on liver mass and hepatic steatosis are assessed. C57Bl/6 mice are assigned to the following experimental groups as depicted in Table 26: Drug treatments and high fat diet feeding (as described in Example 1) are initiated on the same day and are carried out for six weeks. The effects of the treatments and diet on liver mass and hepatic lipid accumulation are assessed as described in the preceding examples. […] In this study, the prophylactic effects of sub-therapeutic leucine alone, and co-administration of leucine and the PDE5-specific inhibitor icariin on liver mass and hepatic steatosis are assessed. […] The effects of the treatments and diet on liver mass and hepatic lipid accumulation are assessed as described in the preceding examples.

[5] = system: hepatic steatosis; assay: Liver weight after six weeks treatment in chronic high fat diet mice; format: in vivo, C57Bl/6 mice; details: therapeutic metformin alone 1.5 g/kg diet
Description: as §1, §3, §2

Compound: COc1ccc(-c2oc3c(CC=C(C)C)c(O[C@@H]4O[C@H](CO)[C@@H](O)[C@H](O)[C@H]4O)cc(O)c3c(=O)c2O[C@@H]2O[C@@H](C)[C@H](O)[C@@H](O)[C@H]2O)cc1 [icariin]
- effect on liver mass or hepatic lipid accumulation [1]: no effect

Compound: metformin
- effect on liver triglycerides [2]: partially reversed the effect of high fat diet on liver triglycerides
- hepatic steatosis (histological analysis) ([3]; Example 2, metformin alone 1.5 g/kg diet, leucine 24 g/kg diet, resveratrol 12.5 mg/kg diet, combination with sub-therapeutic metformin): partial reversal of the effects of HFD on hepatic steatosis
- hepatic steatosis (histological analysis) ([3]; Example 3, single agents at 'therapeutic dosages' (metformin 1.5 g/kg diet)): partially reversed hepatic steatosis
- hepatic steatosis (histological analysis) ([3]; Example 4, therapeutic metformin alone 1.5 g/kg diet): partially reversed hepatic steatosis
- HFD-induced increase in liver mass and hepatic lipid accumulation (prophylactic) ([4]; Example 6, leucine 24 g/kg diet + metformin 0.15-0.50 g/kg diet): attenuates the HFD-induced increase in liver mass and hepatic lipid accumulation
- HFD-induced increase in liver mass and hepatic lipid accumulation (prophylactic) ([4]; Example 7, HMB (CaHMB, 2 g/kg diet) + metformin 0.15-0.50 g/kg diet): attenuates the HFD-induced increase in liver mass and hepatic lipid accumulation
- effect on liver weight ([5]; Example 2, HFD mice, leucine 24 g/kg diet, resveratrol 12.5 mg/kg diet): partially reverse the effect of high fat diet on liver weight
- effect on liver weight ([5]; Example 3, HFD mice, p<0.02 vs. HFD, n.s. compared to LFD): reversed the effect of high fat diet on liver weight back to control levels
- effect on liver weight ([5]; Example 4, HFD mice, p<0.03): reversed the effect of high fat diet on liver weight back to control levels
